Assays:
[1] = Ocular D-DHA accretion and elimination (0.5% D-DHA diet 77 days, DHA wash-out 73 days); type: in vivo, C57BL/6J mice
From the text: To determine the pharmacokinetics of ocular D-DHA uptake, incorporation and elimination from the neural retina and RPE/choroid/sclera, twelve-week-old C57BL/6J mice were fed a 0.5% D-DHA containing diet (0.5 g D-DHA/100 g food, Table 3) for 77 days followed by an additional 73-day wash-out phase with DHA. At 4 weeks, >55% of the DHA in the retina was D-DHA rising to >60% at 5 weeks (FIG. 6A). At similar time points, D-DHA in the RPE/choroid/sclera was >80%. […] Based on the accretion and elimination data, two-month-old mice were fed with diets containing either D-DHA or natural DHA control for 1 week, 2 weeks, 3 weeks, and 4 weeks before the IVT injection of iron and saline control (FIG. 6B). In order to better approximate typical DHA doses in human prescription omega-3 supplements (e.g. 1,500 mg/day DHA in Lovaza), the D-DHA and DHA experimental mouse diets were adjusted to 0.25% instead of 0.5% for most of the study. On a 0.25% D-DHA diet, retinal D-DHA levels exceeded 50% at five weeks (52.2±1.5% and 55% of total DHA by our GC- and LC- based MS methods, respectively), regardless of whether eyes were injected with iron or control saline (Table 3).
Eleven-week-old C57BL/6J mice were purchased from Jackson Laboratory (Bar Harbor, ME) and housed in 20-25 lux light conditions under 12 h day/night cycle in the Dean McGee Eye Institute Animal Research Facility at the University of Oklahoma Health Sciences Center, Oklahoma City, OK. One week after acclimatization to the vivarium with ad libitum access to laboratory rodent chow and water the animals were assigned to experimental groups. To determine ocular D-DHA accretion, the mice were switched from the laboratory rodent diet to the experimental D-DHA supplemented diet containing 0.5% D-DHA plus 6.5% high oleic soybean oil (w/w) in AIN93G^51 (Research Diet, Inc. New Brunswick, NJ). The diets were vacuum packaged and stored at - 20° C. Food was replaced three times a week with fresh food ad libitum that is stored in 4° C. after it is taken from - 20° C. Based on previous estimated retina accretion kinetics, retina, optic nerve and eye cups containing sclera, retinal pigment epithelium-choroid (RPE-choroid) were dissected from 6 mice (3 females and 3 males) at different time points during eleven weeks of D-DHA feeding. The tissues were snap frozen in liquid nitrogen, and stored in -80° C. until fatty acid analyses. After eleven weeks (77 days) on D-DHA diet, the animals were switched to the washout diet containing 0.5% DHA plus 6.5% high oleic soybean oil (w/w) in AIN93G and maintained on this diet until euthanasia at three different time points up to 73 days, when tissues were harvested for fatty acid analysis. All animal procedures were approved by the University of Oklahoma Health Sciences Center Institutional Animal Care and Use Committee.
Three types of mass spectrometric analysis were performed to confirm repeatability of results. In the first, lipids were extracted from retinas by a modified Folch method (CHCl3/CH3OH, 2:1). derivatized to fatty acid methyl esters (FAME), and analyzed by high resolution capillary gas chromatography and specialized chemical ionization tandem mass spectrometry. Baseline resolved DHA and D-DHA total ion signal were integrated, and the proportions of D-DHA/total DHA were calculated. […] Lipids were extracted and saponified, and analyzed by ESI-LC/MS on a 4000 QTrap (Sciex) operating in enhanced negative mode over an m/z range of 320 - 345 and a scan rate of 250 /sec. […]

[2] = system: iron-induced retinal autofluorescence and degeneration; assay: Iron-induced retinal autofluorescence and degeneration, cSLO and OCT imaging 1 week after intravitreal iron; type: in vivo, C57BL/6J mice
Procedure: To evaluate the protective effect of 0.25% D-DHA diet, confocal scanning laser ophthalmoscopy (cSLO) and optical coherence tomography (OCT) were employed for in vivo imaging at 1 week after injections. For the cSLO imaging, both blue autofluorescence (BAF) and near-infra autofluorescence (IRAF) were performed.
Adult male wild-type C57BL/6J mice (Stock No.000664, Jackson Labs, Bar Harbor, ME, USA) were housed in standard conditions under cyclic light (12 h:12 h light-dark cycle). Mice had ad libitum access to water and food. Beginning at 2 mo of age, mice were placed on the AIN93G diet described above, supplemented with 0.25% D-DHA or DHA (control diet) for 1 week, 2 weeks, 3 weeks, or 4 weeks prior to the intravitreal injection. Mice were given an intravitreal injection of 1 µl 0.5 mM ferric ammonium citrate diluted in 0.9% NaCl (saline) (MP Biomedicals LLC, Santa Ana, CA) or
1 µl of saline as control. Intravitreal injections were performed as previously described ^54. Mice were continued on respective diet until their final evaluation. All housing and procedures were performed according to the NIH Guide for the Care and Use of Experimental Animals and approved by the University of Pennsylvania Animal Care and Use Committee.
Mice were given general anesthesia and placed on a platform. Pupils were dilated with 1% tropicamide saline solution (Akorn, Inc., Lake Forest, IL). Optical coherence tomography (OCT) imaging was performed for visualization of the retinal structure by using a Bioptigen
Envisu (R2200, Bioptigen Inc., Durham, NC, USA) coupled to a broadband LED light source (T870-HP, Superlum Diodes, Ltd, Ireland). Confocal scanning laser ophthalmoscopy (cSLO) (Spectralis HRA, Heidelberg Engineering, Franklin, MA, USA) was used for visualization of retinal AF using BluePeak™ or simply blue AF (488 nm excitation) and near-infrared AF (787 nm excitation) imaging modes.

[2H]C([2H])(/C=C\CC)/C=C\C([2H])([2H])/C=C\C([2H])([2H])/C=C\C([2H])([2H])/C=C\C([2H])([2H])/C=C\CCC(=O)OCC [D-DHA, 6,6,9,9,12,12,15,15,18,18-D10-(4Z,7Z,10Z,13Z,16Z, 19Z)-docosa 4,7,10,13,16, 19-hexaenoic acid ethyl ester]
% of the DHA in the retina that was D-DHA ([1]; 0.5% D-DHA diet, 4 weeks): > 55% | % of the DHA in the retina that was D-DHA ([1]; 0.5% D-DHA diet, 5 weeks): > 60% | D-DHA in the RPE/choroid/sclera ([1]; 0.5% D-DHA diet, similar time points (4-5 weeks)): > 80% | washout in the RPE/choroid/sclera ([1]; DHA wash-out diet, compared with retina): more rapid than retina | uptake and elimination kinetics ([1]; neural retina and RPE/choroid/sclera): classic first order kinetics | iron induced retinal AF (BAF and IRAF cSLO images) ([2]; 0.25% D-DHA diet for 1, 2, 3 and 4 weeks before iron injection, 1 week after injection): dose-dependent reduction | protective effects (reduction of AF area) ([2]; at >30% retinal D-DHA substitution levels): > 50% | retinal structure in OCT scans ([2]; fed D-DHA for 4 weeks, 1 week after iron injection): complete protection | protection against iron-induced retinal damage ([2]; fed D-DHA for 4 weeks, >50% substitution in neural retina): nearly complete protection

Source: patent publication US20230333087A1, “METHODS FOR MONITORING PATIENT RESPONSE TO TREATMENT OF RETINAL OXIDATIVE DISEASES” (BioJiva LLC, priority 2022, published 2023)
